Reference: US20030135023A1, “Peptide structures useful for competitive modulation of dipeptidyl peptidase IV catalysis” (priority 2001, published 2003)
Values joined by “and” are separate entries in the source; they are usually repeats but may differ in a detail not shown here. Equal values may be shown once. Read-outs that look alike come from different tables or passages of the source. Square brackets hold non-standard residues; d marks the D form. Peptide text beside a SMILES is read from it. Tle = CC(C)(C)[C@H](N)C(=O)O

How the values were obtained:
plasma DP IV = target: T1, plasma DP IV (Rattus norvegicus, UniProt P14740); assay: Plasma DP IV activity after intravasal and oral administration in Wistar rats; assay type: in vivo; conditions: for inhibition at 100 mg/kg: rat, Wistar rats
T1 construct: The assay mixture consisted of 80 μl reagent and 20 μl plasma; from tissue; host or cells: plasma of Wistar rats
T1 sequence (P14740 37-767 limits assumed): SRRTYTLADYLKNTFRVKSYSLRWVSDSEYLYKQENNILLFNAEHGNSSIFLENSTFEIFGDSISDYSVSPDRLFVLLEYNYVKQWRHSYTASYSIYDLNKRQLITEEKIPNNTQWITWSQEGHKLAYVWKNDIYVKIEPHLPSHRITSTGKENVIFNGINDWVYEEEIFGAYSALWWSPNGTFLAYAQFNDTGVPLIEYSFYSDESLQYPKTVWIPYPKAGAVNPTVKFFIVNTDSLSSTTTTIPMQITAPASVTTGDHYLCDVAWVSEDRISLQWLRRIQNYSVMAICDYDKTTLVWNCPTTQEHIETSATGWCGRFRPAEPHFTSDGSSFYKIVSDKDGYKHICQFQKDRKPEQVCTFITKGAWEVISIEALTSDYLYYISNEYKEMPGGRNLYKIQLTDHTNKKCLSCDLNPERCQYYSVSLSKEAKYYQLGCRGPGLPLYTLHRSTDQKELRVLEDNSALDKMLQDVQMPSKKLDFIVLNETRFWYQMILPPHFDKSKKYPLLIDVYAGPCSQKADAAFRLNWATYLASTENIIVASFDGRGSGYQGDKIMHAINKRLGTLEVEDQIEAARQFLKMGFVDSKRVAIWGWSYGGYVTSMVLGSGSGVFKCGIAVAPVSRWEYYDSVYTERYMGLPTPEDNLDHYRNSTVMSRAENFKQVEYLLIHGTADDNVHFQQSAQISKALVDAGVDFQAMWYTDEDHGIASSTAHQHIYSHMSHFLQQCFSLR
Description: Rats with intact catheter function were given the test substances intravasal (intraarterial) or oral, respectively, in random order (N=3 Wistar rats in each group). As positive control, […]. isoleucine thiazolidine*fumarate were administered intravasal.
After overnight fasting, 100 μl samples of heparinized arterial blood were collected at −30, −5, and 0 min into ice-cooled Eppendorf tubes (see below). The test substances were dissolved freshly in 1.0 ml saline (0.154 mol/l) and were given at 0 min either oral via a feeding tube ([…], 75 mm; Fine Science Tools, Heidelberg, Germany) or intravasal. For the intravasal route, the catheter was immediately flushed with 30 μl saline and an additional 1 ml of saline was given orally via the feeding tube.
Arterial blood samples were taken thereafter at 5, 10 (only in a limited number of experiments), 20, 40, 60 and 120 min from the carotid catheter of the conscious unrestrained rats and were always given into ice cooled Eppendorf tubes (Eppendorf-Netheler-Hinz, Hamburg, Germany) filled with 10 μl 1 M citrate buffer pH 3.0 for prevention of further hydrolysis of tripeptides by plasma DP IV activity. Eppendorf tubes were centrifuged immediately (12000 rpm for 2 min, Hettich Zentrifuge EBA 12, Tuttlingen; Germany): The plasma fractions were store on ice until analysis or were deeply frozen at −20 ° C. until analysis.
Plasma DP IV activity: The assay mixture consisted of 80 μl reagent and 20 μl plasma. Kinetic measurements of the formation of the yellow product 4-nitroaniline were performed at 390 nm for 1 min at 30° C. after 2 min pre-incubation at the same temperature. The activity was expressed as arbitrary units [AU] and DP IV activity [mU/ml].
The absolute values of plasma DP IV activity, the relative change of plasma DP IV activity and the time and extent of maximal inhibition were calculated. Data presentation included the presentation of area under the curve (AUC), which was used for evaluation of extent of inhibition of plasma DP IV activity during the two hours of observation. AUC was calculated using the trapezoidal rule.
To compare relative changes of parameters under the conditions of different initial values of DP IV activity an uniform standardised mean (values) was set up at the beginning of the test (see Figures and Tables).
Statistical evaluations were performed with Microsoft Excel® 97. All variables are presented as mean and standard deviation (SD). Treatment groups were compared by Student's t-test, within-group changes by paired t-test. Two-tailed values of p<0.05 were considered significant.

purified porcine DP IV = purified porcine DP IV (Sus scrofa, UniProt P22411); assay: Determination of IC50-values, Gly-Pro-pNA cleavage by DP IV; assay type: biochemical; conditions: Gly-Pro-pNA 0.4 mM, HEPES pH 7.6, 30° C.; read-out: IC50
Sequence of purified porcine DP IV (P22411 whole entry): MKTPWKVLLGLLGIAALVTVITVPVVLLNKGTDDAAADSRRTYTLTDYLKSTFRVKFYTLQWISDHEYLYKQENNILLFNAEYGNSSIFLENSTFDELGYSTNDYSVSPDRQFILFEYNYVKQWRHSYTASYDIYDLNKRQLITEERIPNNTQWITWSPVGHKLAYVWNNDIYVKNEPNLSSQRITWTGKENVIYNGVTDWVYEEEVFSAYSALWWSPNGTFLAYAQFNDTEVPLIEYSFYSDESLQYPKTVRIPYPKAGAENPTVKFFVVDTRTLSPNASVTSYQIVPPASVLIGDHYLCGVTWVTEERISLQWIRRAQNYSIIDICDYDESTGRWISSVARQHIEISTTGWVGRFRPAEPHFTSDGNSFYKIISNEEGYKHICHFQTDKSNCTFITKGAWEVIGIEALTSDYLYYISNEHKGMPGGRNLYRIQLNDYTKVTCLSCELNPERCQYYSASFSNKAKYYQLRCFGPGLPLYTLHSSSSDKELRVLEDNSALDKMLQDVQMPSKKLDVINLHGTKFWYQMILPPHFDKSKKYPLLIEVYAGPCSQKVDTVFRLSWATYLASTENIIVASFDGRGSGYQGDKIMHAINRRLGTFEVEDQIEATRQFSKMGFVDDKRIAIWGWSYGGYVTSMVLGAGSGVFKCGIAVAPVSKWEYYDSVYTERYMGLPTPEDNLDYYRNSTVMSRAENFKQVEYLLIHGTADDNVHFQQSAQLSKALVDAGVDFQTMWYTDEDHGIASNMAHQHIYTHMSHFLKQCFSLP
Description: 100 μl inhibitor stock solution were mixed with 100 μl buffer (HEPES pH 7.6) and 50 μl substrate (Gly-Pro-pNA, final concentration 0.4 mM) and preincubated at 30° C. Reaction was started by addition of 20 μl purified porcine DP IV. Formation of the product pNA was measured at 405 nm over 10 min using the HTS 7000 Plus plate reader (Perkin Elmer) and slopes were calculated. The final inhibitor concentrations ranged between 1 mM and 30 nM.
For calculation of IC50-values GraFit 4.0.13 (Erithacus Software) was used.

[1] = oral 100 mg/kg b.w., individual animals, 100 mg/kg

- time period over which plasma DP IV decreased slowly (plasma DP IV; oral 100 mg/kg b.w.): 40 min
- Plasma DP IV activity (plasma DP IV; oral 100 mg/kg b.w., 2.5 min, Mean): 17.25 mU/ml
- Plasma DP IV activity (plasma DP IV; oral 100 mg/kg b.w., 2.5 min, Standardized Mean): 17.08 mU/ml
- Plasma DP IV activity (plasma DP IV; oral 100 mg/kg b.w., 5 min, Mean): 19.15 mU/ml
- Plasma DP IV activity (plasma DP IV; oral 100 mg/kg b.w., 5 min, Standardized Mean): 18.98 mU/ml
- Plasma DP IV activity (plasma DP IV; oral 100 mg/kg b.w., 7.5 min, Mean): 17.25 mU/ml
- Plasma DP IV activity (plasma DP IV; oral 100 mg/kg b.w., 7.5 min, Standardized Mean): 17.08 mU/ml
- Plasma DP IV activity (plasma DP IV; oral 100 mg/kg b.w., 10 min, Mean): 21.64 mU/ml
- Plasma DP IV activity (plasma DP IV; oral 100 mg/kg b.w., 10 min, Standardized Mean): 21.46 mU/ml
- Plasma DP IV activity (plasma DP IV; oral 100 mg/kg b.w., 15 min, Mean): 21.05 mU/ml
- Plasma DP IV activity (plasma DP IV; oral 100 mg/kg b.w., 15 min, Standardized Mean): 20.88 mU/ml
- Plasma DP IV activity (plasma DP IV; oral 100 mg/kg b.w., 20 min, Mean): 17.98 mU/ml
- Plasma DP IV activity (plasma DP IV; oral 100 mg/kg b.w., 20 min, Standardized Mean): 17.81 mU/ml
- Plasma DP IV activity (plasma DP IV; oral 100 mg/kg b.w., 20 min, individual animals, 100 mg/kg): 25.00 mU/ml and 10.97 mU/ml
- Plasma DP IV activity (plasma DP IV; oral 100 mg/kg b.w., 40 min, Mean): 19.30 mU/ml
- Plasma DP IV activity (plasma DP IV; oral 100 mg/kg b.w., 40 min, Standardized Mean): 19.12 mU/ml
- Plasma DP IV activity (plasma DP IV; oral 100 mg/kg b.w., 60 min, Mean): 19.44 mU/ml
- Plasma DP IV activity (plasma DP IV; oral 100 mg/kg b.w., 60 min, Standardized Mean): 19.27 mU/ml
- Plasma DP IV activity (plasma DP IV; oral 100 mg/kg b.w., 60 min, individual animals, 100 mg/kg): 21.93 mU/ml (2×) and 14.47 mU/ml
- Plasma DP IV activity (plasma DP IV; oral 100 mg/kg b.w., 120 min, Mean): 20.91 mU/ml
- Plasma DP IV activity (plasma DP IV; oral 100 mg/kg b.w., 120 min, Standardized Mean): 20.73 mU/ml
- Plasma DP IV activity (plasma DP IV; oral 100 mg/kg b.w., 120 min, individual animals, 100 mg/kg): 16.23 mU/ml and 23.25 mU/ml (2×)
- DP IV-AUC (plasma DP IV; oral 100 mg/kg b.w., Mean): −51.5 AU · min
- Drop of plasma DP IV activity (plasma DP IV; oral 100 mg/kg b.w., Mean): 10.53 mU/ml
- DP IV-AUC0-120 min (plasma DP IV; oral 100 mg/kg b.w., p<0.05 vs. intra-vasal): −336±162 mU·min·ml^−1
- inhibition at 100 mg/kg (plasma DP IV; iv, i.v., 100 mg/kg, read-out: DPIV inhibition at tmax, i.v.): 71%
- inhibition at 100 mg/kg (plasma DP IV; po, p.o., 100 mg/kg, read-out: DPIV inhibition at tmax, p.o.): 28%
- IC50 (purified porcine DP IV): 9.34 µM
SMILES: CC[C@H](C)[C@H](NC(=O)[C@@H]1CCCN1C(=O)[C@@H](N)C(C)(C)C)C(=O)O [t-butyl-Gly-Pro-Ile] (H-[Tle]-Pro-Ile-OH; N-terminus and C-terminus assumed)
- Plasma DP IV activity (plasma DP IV; oral 100 mg/kg b.w., 2.5 min, individual animals, 100 mg/kg): 20.61 mU/ml and 9.21 mU/ml and 21.93 mU/ml
- Plasma DP IV activity (plasma DP IV; oral 100 mg/kg b.w., 5 min, individual animals, 100 mg/kg): 23.68 mU/ml and 13.16 mU/ml and 20.61 mU/ml
- Plasma DP IV activity (plasma DP IV; oral 100 mg/kg b.w., 7.5 min, individual animals, 100 mg/kg): 21.05 mU/ml and 12.28 mU/ml and 18.42 mU/ml
- Plasma DP IV activity (plasma DP IV; oral 100 mg/kg b.w., 10 min, individual animals, 100 mg/kg): 21.93 mU/ml and 25.88 mU/ml and 17.11 mU/ml
- Plasma DP IV activity (plasma DP IV; oral 100 mg/kg b.w., 15 min, individual animals, 100 mg/kg): 29.39 mU/ml and 15.79 mU/ml and 17.98 mU/ml
- Plasma DP IV activity (plasma DP IV; oral 100 mg/kg b.w., 40 min, individual animals, 100 mg/kg): 21.49 mU/ml and 8.77 mU/ml and 27.63 mU/ml
- DP IV-AUC (plasma DP IV; [1]): 155.2 AU · min and −961.1 AU · min and 651.3 AU · min
- Drop of plasma DP IV activity (plasma DP IV; [1]): 6.58 mU/ml and 23.25 mU/ml and 1.75 mU/ml
